Laboratory results reported in patent US20230414573A1, “SYNERGISTIC OPHTHALMOLOGICAL COMPOSITION IN A LOW-CONCENTRATION DOSE THAT IS EFFECTIVE IN THE PREVENTION, CONTROL AND ERADICATION OF PRESBYOPIA” (priority 2020, published 2023).
Where “and” joins values, the source holds several entries; their conditions need not be identical. Identical values can stand only once.

Tested on: eyes of patients with presbyopia
Test: Clinical trial: near vision on Rosenbaum chart with Jaeger notation
Format: in vivo, human
Details: one hour after instillation; for JAEGER- 2 (Jaeger scale, near vision): one drop, synergistic mixture in non-dominant eye, pilocarpine or brimonidine dilution in dominant eye, 11 patients, baseline 5.82; for WINNED LINES (lines gained in the reading primer with Jaeger's notation): synergistic combination in non-dominant eye, comparators in dominant eye
Method: A composition was prepared where patients with presbyopia symptoms were selected. This study was approved by the ethics committee of Optall Vision Eye Center in Mexico City. All patients signed and gave their consent to participate in such study.
For the study, patients with presbyopia, with a corrected visual acuity of 20/25 or better, were included. The diagnosis of presbyopia was determined without correcting near vision acuity was equal to or less than 3 on the Jaeger scale on the Rosenbaum chart improving at least 2 on the Jaeger scale with the use of at least +1.00 D. Age, gender, ocular dominance, uncorrected visual acuity (UCVA), corrected near visual acuity (BNCVA) intraocular pressure with Goldmann applanation tonometer (IOP), pupil diameter under photopic and scotopic conditions (PD), slit lamp biomicroscopic examination and a fundus examination were recorded.
The ophthalmic composition comprised a single low concentration dose of pilocarpine, brimonidine, oxymetazoline/sodium hyaluronate, bromfenac and/or at least one vasoconstrictor and at least one pharmaceutically acceptable vehicle. From said combination, one drop of the synergistic mixture was applied and instilled in the nondominant eye and one drop of pilocarpine or brimonidine dilution was alternately instilled in the dominant eye of consecutive patients. After one hour, uncorrected visual acuity (UCVA), corrected visual acuity (BCVA), uncorrected near visual acuity (UNVA), corrected near visual acuity (BCNVA), intraocular pressure (IOP), pupil diameter (PD), visual analog pain scale (VAS) was measured from 0 to 10. Hyperemia was measured from 1 to 4.
Statistical analyses were performed with SPSS using Pearson's and Spearman's correlation analysis.
The type of modern Jaeger eye chart scale used generally ranges from J10 (approximately 14 points for Times New Roman typeface) to J1 (approximately 3 points, Times New Roman typeface). The chart moves back and forth until you can read a certain font size.

| SMILES | JAEGER- 2 (Jaeger scale, near vision) | WINNED LINES (lines gained in the reading primer with Jaeger's notation) | WINNED LINES (lines gained in the reading primer with Jaeger's notation) (listed as brimonidine) | JAEGER- 2 (Jaeger scale, near vision) (listed as pilocarpine) | WINNED LINES (lines gained in the reading primer with Jaeger's notation) (listed as pilocarpine) |
| --- | --- | --- | --- | --- | --- |
| Brc1c(NC2=NCCN2)ccc2nccnc12 [Brimonidine, brimonidine] | 3.50±−1.761 and 3.5 | 2.33 | 2.33±−2.50 |  |  |
| CC[C@@H]1C(=O)OC[C@@H]1Cc1cncn1C [Pilocarpine, pilocarpine] | 4.2 | 1.6 |  | 4.20±−1.483 | 1.60±−089 |
